Assay results: patent publication US11891601B2, “Method to enhance the transcription regulation of SUPT4H on genes containing repetitive nucleotide sequences” (National Yang-Ming University, priority 2018, dated 2024)

Tested on: genes with lengthy repetitive nucleotide sequences (Q81-GFP, mutant HTT)
Test: RT-qPCR of (CAG)n-GFP / HTT mRNA with SUPT4H siRNA knockdown plus tropolone
Assay type: cell-based
Settings: together with SUPT4H siRNA; only in the genes with lengthy repetitive nucleotide sequences
Experimental: ST14A, Hdh^Q7/Q7 and Hdh^Q111/Q111 were maintained in DMEM (HyClone) supplemented with 15% fetal bovine serum at 33° C. with 5% CO2. ST14A^tet is a genetic engineered stable line, which integrated pTet-Off construct in the genome of ST14A cells and could trigger the expression of pTRE2-(CAG)n-eGFP plasmid in the absence of tetracycline. Lipofectamine 2000 (Invitrogen) transfection reagent was used to deliver siRNA or together with pTRE2-(CAG)n-eGFP into cells. 100 nM of SUPT4H siRNA (DHARMACON, ON-TARGET plus SMART pool, L-048866-01) and (DHARMACON, J-086342-10, 5′-[…]-3′ (SEQ ID NO: 1) and 5′-[…]-(SEQ ID NO: 2)) were used to knock-down SUPT4H expression in mice and rat cells, respectively.
For mammalian cells, total RNA was isolated using TRIzol reagent as per manufacturer's instruction (Invitrogen). […] The amount of cDNAs were quantified by StepOnePlus Real-Time qPCR system (Applied Biosystems) and analyzed by the Quantitative-Comparative CT (AACT) program. Rat SUPT4H, eGFP, mouse SUPT4H, and Mouse HTT were measured using corresponding primer sets as indicated in TABLE 3. snRNA U6 was included as a loading control. […]
Please refer to FIG. 6. […] A relative high signal of R-loops was detected in (CAG)7-eGFP, but this signal is not increased by tropolone. […] RNA was extracted and analyzed by real-time RT-qPCR to measure the quantity of (CAG)n-GFP, SUPT4H and snRNA U6. […]

## O=c1cccccc1O [Tropolone]
  level of transcriptional reduction by SUPT4H siRNA knockdown upon tropolone treatment: further increased
